This note sets out measurements from ChEMBL document CHEMBL5291721, “A preclinical secondary pharmacology resource illuminates target-adverse drug reaction associations of marketed drugs” (Nat Commun, 2023).

Bounds are passed on as bounds.

Targets include Glucagon receptor (Homo sapiens, UniProt P47871); Substance-P receptor (Homo sapiens, UniProt P25103); Estrogen receptor beta (Homo sapiens, UniProt Q92731).
Test [1] addresses 5-hydroxytryptamine receptor 2B (Homo sapiens, UniProt P41595).
The target of test [2] is T1, Corticotropin-releasing factor receptor 1 (Homo sapiens, UniProt P34998).
T1 sequence (P34998 whole entry): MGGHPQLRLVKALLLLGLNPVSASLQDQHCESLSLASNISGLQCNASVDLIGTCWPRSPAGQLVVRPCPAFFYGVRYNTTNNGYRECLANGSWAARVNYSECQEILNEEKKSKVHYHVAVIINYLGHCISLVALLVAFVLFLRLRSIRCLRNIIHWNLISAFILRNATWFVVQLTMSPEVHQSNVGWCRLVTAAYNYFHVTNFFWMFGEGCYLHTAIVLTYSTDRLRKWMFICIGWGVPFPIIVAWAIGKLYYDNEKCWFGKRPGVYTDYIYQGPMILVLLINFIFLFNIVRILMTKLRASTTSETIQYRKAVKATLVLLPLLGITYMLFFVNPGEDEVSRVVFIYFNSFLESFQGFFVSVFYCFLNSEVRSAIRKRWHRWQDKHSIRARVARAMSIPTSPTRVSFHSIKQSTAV

The target of test [3] is T2, Endothelin receptor type B (Homo sapiens, UniProt P24530).
T2 sequence (P24530 whole entry): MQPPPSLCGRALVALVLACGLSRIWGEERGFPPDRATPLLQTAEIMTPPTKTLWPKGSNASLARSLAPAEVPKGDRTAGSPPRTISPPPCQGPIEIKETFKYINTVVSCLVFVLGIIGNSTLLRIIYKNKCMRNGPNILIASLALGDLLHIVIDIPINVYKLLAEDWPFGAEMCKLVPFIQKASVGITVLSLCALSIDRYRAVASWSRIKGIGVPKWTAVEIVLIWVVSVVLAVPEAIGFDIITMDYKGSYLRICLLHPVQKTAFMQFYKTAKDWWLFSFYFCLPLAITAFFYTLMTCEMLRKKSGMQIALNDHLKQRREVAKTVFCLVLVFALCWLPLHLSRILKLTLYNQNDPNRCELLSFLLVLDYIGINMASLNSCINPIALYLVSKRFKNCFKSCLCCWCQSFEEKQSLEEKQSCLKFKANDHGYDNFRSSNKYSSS

For test [4], the target named is T3, Corticotropin-releasing factor receptor 2 (Homo sapiens, UniProt Q13324).
T3 sequence (Q13324 whole entry): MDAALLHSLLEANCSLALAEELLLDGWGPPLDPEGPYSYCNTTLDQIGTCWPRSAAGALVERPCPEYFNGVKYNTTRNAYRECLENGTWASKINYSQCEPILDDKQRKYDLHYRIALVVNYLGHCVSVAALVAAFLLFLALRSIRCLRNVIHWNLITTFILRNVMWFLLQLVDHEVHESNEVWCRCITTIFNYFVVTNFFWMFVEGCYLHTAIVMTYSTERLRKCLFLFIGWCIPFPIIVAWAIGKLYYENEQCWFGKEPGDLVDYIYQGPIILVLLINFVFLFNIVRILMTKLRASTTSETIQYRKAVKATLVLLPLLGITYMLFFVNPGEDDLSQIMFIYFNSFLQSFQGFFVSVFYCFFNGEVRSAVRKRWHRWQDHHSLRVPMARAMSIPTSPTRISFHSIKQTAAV

The target of another test is T4, D(4) dopamine receptor (Homo sapiens, UniProt P21917).
T4 sequence (P21917 whole entry): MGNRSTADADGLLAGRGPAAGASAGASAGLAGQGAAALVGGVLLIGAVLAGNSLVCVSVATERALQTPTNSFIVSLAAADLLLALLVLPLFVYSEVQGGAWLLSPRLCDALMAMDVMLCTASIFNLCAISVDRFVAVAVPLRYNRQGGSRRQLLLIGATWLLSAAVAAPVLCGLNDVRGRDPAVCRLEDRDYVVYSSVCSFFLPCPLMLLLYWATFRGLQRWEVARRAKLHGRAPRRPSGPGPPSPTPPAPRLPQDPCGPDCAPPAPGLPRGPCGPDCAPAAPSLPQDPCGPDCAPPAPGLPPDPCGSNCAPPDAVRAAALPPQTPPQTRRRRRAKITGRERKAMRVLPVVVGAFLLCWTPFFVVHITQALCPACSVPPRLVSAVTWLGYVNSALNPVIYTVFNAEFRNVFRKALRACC

The target of test [5] is Gamma-aminobutyric acid receptor subunit alpha-1 (Rattus norvegicus, UniProt P62813).
Gamma-aminobutyric acid receptor subunit alpha-1, sequence (P62813 whole entry): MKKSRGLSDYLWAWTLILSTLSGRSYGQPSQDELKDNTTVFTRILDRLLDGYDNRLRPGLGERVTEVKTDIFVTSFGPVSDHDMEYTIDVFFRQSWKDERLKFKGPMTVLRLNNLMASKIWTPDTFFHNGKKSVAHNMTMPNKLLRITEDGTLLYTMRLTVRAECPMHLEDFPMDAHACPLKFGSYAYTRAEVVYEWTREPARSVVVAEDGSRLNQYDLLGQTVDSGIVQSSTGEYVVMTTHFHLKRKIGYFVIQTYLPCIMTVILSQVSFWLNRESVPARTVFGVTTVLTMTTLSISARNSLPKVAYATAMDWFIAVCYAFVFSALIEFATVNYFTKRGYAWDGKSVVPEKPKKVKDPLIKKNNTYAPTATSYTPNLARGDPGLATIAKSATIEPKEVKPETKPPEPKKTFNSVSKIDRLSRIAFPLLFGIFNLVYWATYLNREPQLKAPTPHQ
For test [6], the target named is T5, Muscarinic acetylcholine receptor M1 (Homo sapiens, UniProt P11229).
T5 sequence (P11229 whole entry): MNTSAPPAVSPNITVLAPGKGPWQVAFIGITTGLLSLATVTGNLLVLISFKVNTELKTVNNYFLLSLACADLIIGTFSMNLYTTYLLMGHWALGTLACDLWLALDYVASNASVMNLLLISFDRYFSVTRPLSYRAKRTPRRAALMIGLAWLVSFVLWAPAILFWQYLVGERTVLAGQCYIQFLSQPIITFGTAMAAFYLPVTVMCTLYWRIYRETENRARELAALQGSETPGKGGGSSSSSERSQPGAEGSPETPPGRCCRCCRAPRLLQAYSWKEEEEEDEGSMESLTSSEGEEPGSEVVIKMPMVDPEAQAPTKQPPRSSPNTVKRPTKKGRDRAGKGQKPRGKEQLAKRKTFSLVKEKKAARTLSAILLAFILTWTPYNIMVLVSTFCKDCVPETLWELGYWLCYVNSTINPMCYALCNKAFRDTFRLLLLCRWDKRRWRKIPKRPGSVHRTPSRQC
The class given is functional, cell-based.
Also: assay procedure not described here.

Substance-P receptor, sequence (P25103 whole entry): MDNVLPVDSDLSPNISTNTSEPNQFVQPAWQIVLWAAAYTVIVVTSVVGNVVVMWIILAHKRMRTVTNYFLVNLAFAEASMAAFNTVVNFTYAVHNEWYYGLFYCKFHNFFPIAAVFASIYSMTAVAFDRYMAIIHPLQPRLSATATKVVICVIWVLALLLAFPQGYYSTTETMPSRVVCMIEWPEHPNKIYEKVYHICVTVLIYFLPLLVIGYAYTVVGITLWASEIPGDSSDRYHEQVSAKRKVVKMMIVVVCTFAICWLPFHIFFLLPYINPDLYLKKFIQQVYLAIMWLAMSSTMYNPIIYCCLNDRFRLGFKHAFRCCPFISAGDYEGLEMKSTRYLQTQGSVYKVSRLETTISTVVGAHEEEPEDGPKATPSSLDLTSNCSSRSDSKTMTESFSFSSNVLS
5-hydroxytryptamine receptor 2B, sequence (P41595 whole entry): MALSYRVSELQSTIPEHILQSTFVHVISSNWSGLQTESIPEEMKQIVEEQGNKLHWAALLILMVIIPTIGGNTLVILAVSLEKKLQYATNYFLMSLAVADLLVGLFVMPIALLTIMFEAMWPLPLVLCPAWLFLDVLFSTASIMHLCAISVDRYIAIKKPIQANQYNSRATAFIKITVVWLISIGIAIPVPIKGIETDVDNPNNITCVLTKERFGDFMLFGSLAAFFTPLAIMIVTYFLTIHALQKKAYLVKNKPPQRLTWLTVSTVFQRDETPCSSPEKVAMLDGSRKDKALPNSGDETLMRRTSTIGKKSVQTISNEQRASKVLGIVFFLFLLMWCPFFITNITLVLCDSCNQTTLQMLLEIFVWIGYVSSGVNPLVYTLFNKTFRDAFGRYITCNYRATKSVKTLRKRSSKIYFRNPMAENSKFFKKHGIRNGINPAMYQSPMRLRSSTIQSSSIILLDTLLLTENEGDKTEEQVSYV
Glucagon receptor, sequence (P47871 whole entry): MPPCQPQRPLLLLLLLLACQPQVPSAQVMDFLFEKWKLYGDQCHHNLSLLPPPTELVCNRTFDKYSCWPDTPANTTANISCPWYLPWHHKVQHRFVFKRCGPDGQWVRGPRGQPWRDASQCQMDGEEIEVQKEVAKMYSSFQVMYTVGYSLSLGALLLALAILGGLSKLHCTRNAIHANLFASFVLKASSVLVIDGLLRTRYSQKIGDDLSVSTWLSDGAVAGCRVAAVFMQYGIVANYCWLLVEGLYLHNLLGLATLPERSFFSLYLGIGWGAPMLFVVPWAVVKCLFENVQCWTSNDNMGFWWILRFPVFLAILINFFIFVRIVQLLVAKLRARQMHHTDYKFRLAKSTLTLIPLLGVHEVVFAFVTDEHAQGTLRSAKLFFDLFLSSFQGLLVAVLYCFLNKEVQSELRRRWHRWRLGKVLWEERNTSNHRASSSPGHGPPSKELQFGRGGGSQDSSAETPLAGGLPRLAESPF
Estrogen receptor beta, sequence (Q92731 whole entry): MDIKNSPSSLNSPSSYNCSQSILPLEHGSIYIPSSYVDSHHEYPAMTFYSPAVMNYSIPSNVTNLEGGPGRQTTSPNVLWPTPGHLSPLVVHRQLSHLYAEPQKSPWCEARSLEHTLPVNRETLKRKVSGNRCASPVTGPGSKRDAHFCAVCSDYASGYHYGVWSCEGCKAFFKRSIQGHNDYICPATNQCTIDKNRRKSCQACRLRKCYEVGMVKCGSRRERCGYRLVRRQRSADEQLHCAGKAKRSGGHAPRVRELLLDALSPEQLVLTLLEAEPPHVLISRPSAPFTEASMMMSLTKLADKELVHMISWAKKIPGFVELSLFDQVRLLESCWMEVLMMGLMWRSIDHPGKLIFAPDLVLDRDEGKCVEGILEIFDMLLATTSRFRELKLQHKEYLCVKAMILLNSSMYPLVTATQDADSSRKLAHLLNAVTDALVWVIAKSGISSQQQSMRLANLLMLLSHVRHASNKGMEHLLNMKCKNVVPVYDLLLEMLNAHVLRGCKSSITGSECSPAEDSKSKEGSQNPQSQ

In the case of `CCOC(=O)[C@H](CCc1ccccc1)N[C@@H](C)C(=O)N1CCC[C@H]1C(=O)O`, the AC50 at Glucagon receptor was > 30 µM; in test [1], > 10 µM; in [2], > 30 µM; in [3], > 30 µM; in test [4], > 30 µM; at D(4) dopamine receptor, > 10 µM. Moreover, the AC50 on Substance-P receptor was > 10 µM.

With `CC(N)Cc1ccccc1` (centres undefined) [AMPHETAMINE], the concentration at half-maximal activity (AC50) (on Glucagon receptor; on Estrogen receptor beta; in test [2]; in test [3]; in test [4]) was > 30 µM in each case.

Regarding `O=C1c2c(O)c(=O)ccn2N([C@@H]2c3ccccc3SCc3c2ccc(F)c3F)[C@@H]2COCCN12` [BALOXAVIR], the concentration at half-maximal activity (AC50) in [5] and in test [6] was > 30 µM throughout.

For `C(=N\NC1=NCCN1)/c1c2ccccc2c(/C=N/NC2=NCCN2)c2ccccc12` [BISANTRENE], the half-maximal activity concentration (AC50) in test [5] was > 30 µM; in test [6] it was 6.37 µM.

Consider `CCO/N=C(\C(=O)N[C@@H]1C(=O)N2C(C(=O)[O-])=C(Sc3nc(-c4cc[n+](C)cc4)cs3)CS[C@H]12)c1nsc(N)n1` [CEFTAROLINE], for which the concentration at half-maximal activity (AC50) in test [6] was > 30 µM.

As for `CC(=O)OCC(=O)[C@@]1(O)CC[C@H]2[C@@H]3CCC4=CC(=O)CC[C@]4(C)[C@H]3C(=O)C[C@@]21C` [CORTISONE ACETATE], the AC50 in [5] was > 30 µM.

With `C[N+](C)(C)CCCCCCCCCC[N+](C)(C)C` [DECAMETHONIUM], in [6], the AC50 is > 30 µM.

As to `O=C1c2ccccc2C(=O)C1C(=O)C(c1ccccc1)c1ccccc1` [DIPHENADIONE], the concentration at half-maximal activity (AC50) in test [5] was > 30 µM; in test [6] it was > 3 µM.

As for `CN(CCOc1ccc(NS(C)(=O)=O)cc1)CCc1ccc(NS(C)(=O)=O)cc1` [DOFETILIDE], the AC50 was > 30 µM at Glucagon receptor; > 30 µM in test [6]; > 10 µM in test [1]; > 30 µM in test [2]; > 30 µM in test [3]; > 30 µM in [4]. For the same molecule, the AC50 at D(4) dopamine receptor and on Substance-P receptor was > 10 µM in each case.

For the molecule `COC(=O)[C@@H]1CC2=CC(=O)CC[C@]2(C)[C@@]23O[C@@H]2C[C@@]2(C)[C@@H](CC[C@@]24CCC(=O)O4)[C@H]13` [EPLERENONE], the half-maximal activity concentration (AC50) at Glucagon receptor was > 30 µM; in [1] it was > 10 µM; in test [2], > 30 µM; in [3] it was > 30 µM; in test [4], > 30 µM.

As to `CCC(=O)O[C@H]1[C@H](O[C@@H]2[C@@H](C)[C@H](O[C@H]3C[C@@](C)(OC)[C@@H](O)[C@H](C)O3)[C@@H](C)C(=O)O[C@H](CC)[C@@](C)(O)[C@H](O)[C@@H](C)C(=O)[C@H](C)C[C@@]2(C)O)O[C@H](C)C[C@@H]1N(C)C` [ERYTHROMYCIN PROPIONATE], the half-maximal activity concentration (AC50) in test [5] was > 30 µM.

As for `C#C[C@]1(O)CC[C@H]2[C@@H]3CCc4cc(O)ccc4[C@H]3CC[C@@]21C` [ETHINYL ESTRADIOL], the concentration at half-maximal activity (AC50) (in [5]; at Glucagon receptor; in test [1]; in test [2]; in test [3]; in test [4]) was > 30 µM in each case. The AC50 at D(4) dopamine receptor and at Substance-P receptor was > 10 µM throughout.

Take `CCOC(=O)c1ccc(O)cc1` [ETHYLPARABEN]: the half-maximal activity concentration (AC50) in test [6] was > 30 µM.

Take `O=C1[C@H](CC[C@H](O)c2ccc(F)cc2)[C@@H](c2ccc(O)cc2)N1c1ccc(F)cc1` [EZETIMIBE]: in test [6], the half-maximal activity concentration (AC50) turned out to be 4.55 µM.

In the case of `NC(N)=Nc1nc(CSCCC(N)=NS(N)(=O)=O)cs1` [FAMOTIDINE], the AC50 on Glucagon receptor is > 30 µM; in test [1] it was > 10 µM; in test [2] it was > 30 µM; in test [3], > 30 µM; in test [4], > 30 µM; at D(4) dopamine receptor, > 10 µM. In addition, on Substance-P receptor, the half-maximal activity concentration (AC50) is > 10 µM.

`O=C(COc1ccc(Cl)cc1)N1CCN(Cc2ccc3c(c2)OCO3)CC1` [FIPEXIDE]: the half-maximal activity concentration (AC50) in [6] turned out to be 6.27 µM. This counts as single-digit micromolar.

Take `CCC(=O)c1c(O)cc(O)cc1O` [FLOPROPIONE]: in test [6], the AC50 is > 30 µM.

On to `C#C[C@]1(O)CC[C@H]2[C@@H]3CCC4=CC(=O)CC[C@@H]4[C@H]3CC[C@@]21CC` [LEVONORGESTREL], for which, in test [5], the AC50 was 3.44 µM.

On to `OC[C@@H](O)[C@@H](O)[C@H](O)[C@H](O)CO` [MANNITOL], for which the AC50 in test [5] is > 30 µM.

As to `CN1CCCC(CN2c3ccccc3Sc3ccccc32)C1` (centres undefined) [MEPAZINE], in [5], the AC50 was > 30 µM.

Consider `CC(=O)Oc1c(C)cc(OCC(O)CNC(C)C)c(C)c1C` (centres undefined) [METIPRANOLOL], for which the half-maximal activity concentration (AC50) in [5] and in test [6] was > 30 µM each time.

As to `O=C1CC[C@@]2(O)[C@H]3Cc4ccc(O)c5c4[C@@]2(CCN3CC2CC2)[C@H]1O5` [NALTREXONE], the AC50 in [5] was > 30 µM.

Consider `OCCN1CCN(CCCN2c3ccccc3C=Cc3ccccc32)CC1` [OPIPRAMOL], for which the half-maximal activity concentration (AC50) is > 30 µM in [5] and 25.7 µM in test [6].

With `CC(N/C(=N\C#N)Nc1ccncc1)C(C)(C)C` (centres undefined) [PINACIDIL ANHYDROUS], the AC50 in test [6] was > 30 µM.

In the case of `CN(C)C(=O)Oc1ccc[n+](C)c1` [PYRIDOSTIGMINE], the AC50 in test [6] is > 30 µM.

In the case of `O=C(NC[C@H]1CN(c2ccc(N3CCOCC3=O)cc2)C(=O)O1)c1ccc(Cl)s1` [RIVAROXABAN], the results for the AC50 in test [5] and in test [6] were > 30 µM and > 3 µM, respectively.

Regarding `Cc1cc2c(cc1CC(=O)c1sccc1S(=O)(=O)Nc1onc(C)c1Cl)OCO2` [SITAXENTAN], in test [5], the AC50 was > 30 µM.

Turning to `CC(C)OC(=O)[C@H](C)N[P@](=O)(OC[C@H]1O[C@@H](n2ccc(=O)[nH]c2=O)[C@](C)(F)[C@@H]1O)Oc1ccccc1` [SOFOSBUVIR], the AC50 in test [6] is > 30 µM.

Take `CS(=O)(=O)c1ccc([C@@H](O)[C@@H](CO)NC(=O)C(Cl)Cl)cc1` [THIAMPHENICOL]: the AC50 in test [5] was > 30 µM.

In the case of `Cc1ccc(O)c2ncccc12` [TILIQUINOL], the half-maximal activity concentration (AC50) in test [5] and in test [6] was > 30 µM each time.

In the case of `CC(=O)OC[C@H]1O[C@@H](n2ccc(=O)[nH]c2=O)[C@H](OC(C)=O)[C@@H]1OC(C)=O` [URIDINE TRIACETATE], the AC50 in test [5] and in [6] was > 30 µM each time.

In test [6], `CCOC(=O)N[C@@H]1CC[C@@H]2[C@@H](C1)C[C@H]1C(=O)O[C@H](C)[C@H]1[C@H]2/C=C/c1ccc(-c2cccc(F)c2)cn1` [VORAPAXAR] yielded a half-maximal activity concentration (AC50) of 26.3 µM.

As for `O=C(CCCCCCC(=O)Nc1ccccc1)NO` [VORINOSTAT], the AC50 (on Glucagon receptor; in test [1]; in test [3]; on D(4) dopamine receptor; on Substance-P receptor) was > 10 µM each time.

By AC50 is commonly meant the concentration at which the activity in the assay is half-maximal. The low end stands for greater potency, the high end for weaker potency.
